# Experimental data from US20220008296A1, “CAPSULE FORMULATION” (Capsugel Belgium NV, priority 2014, published 2022).
# How the values were obtained:
# [1] = cited from earlier work
# [2] = acid resistance experiment: litmus colour inside oil-filled, band-sealed DRcaps capsule submerged in acid; format: physicochemical; parameters: key to Result (color): −: almost all red/unsuitable; +: about half red/passable; ++: all blue/excellent; settings: for liquid color / acidification inside the capsule (in words) / Result (color): 120 minutes after submersion in JP first liquid pH1.2, 37°; for liquid color / acidification inside the capsule (in words): Example 2; for Result (color): colour of litmus powder in the fill of a DRcaps capsule, n=3
# Procedure: The fine powder of a litmus reagent that changes to red in response to acid (blue, Wako Pure Chemical Industries Ltd. high grade), used as an active ingredient, is dispersed or dissolved in 0.2% by weight each of MCT, which is an edible oil (medium chain fatty acid triglyceride, coconad MT (made by Kao Co.) and glycerin, which is a water-based edible additive (made by Kao Co.) (dissolves very readily in water, comparative example). Then, 300 μL each of this solution is loaded into the separated body portion of an acid resistant hard capsule made by Capsugel (DRcaps (trademark), size no. 2, transparent no color). Then, a capsule formulation is prepared by sealing the fitted part of the cap portion and the body portion of the hard capsule using a band sealing solution (see FIG. 1). It should be noted that the band sealing solution is produced based on the information described in International Application PCT/US2013/041838 (application date May 20, 2013) (title of invention “ACID RESISTANT BANDING SOLUTION FOR TWO PIECE HARD CAPSULES”) wherein US Patent Application No. 61/707,135 (application date: Sep. 28, 2012) forms the basic application, which is an undisclosed application. The composition of the band sealing solution is ethanol: 59.9% by weight, shellac: 37.0% by weight, water: 1.6% by weight, and surfactant (sorbitan fatty acid aster and glycerin fatty acid ester) 1.5% by weight.
# (§1) These capsule formulations are wrapped in wire to prevent the capsule formulations from floating up, and submerged in the first liquid (pH1.2 liquid) in the Japanese Pharmacopoeia which is maintained at 37° to simulate the gastric acid inside a living organism.
# The experiment was carried out with the same conditions used in example 1 (amount of oil, measurement conditions, measurement time, and the like), and the effect on acid resistance when another oil or surfactant is enclosed in the capsule was examined. In this example, the following criteria were determined based on the color of the fine litmus powder dissolved or dispersed in oil enclosed in a capsule.
# as §1, with “were” for “are”, “Pharmacopoeia” for “Pharmacopoeia which is”, “organism. The color of the liquid in the capsule 120 minutes after submersion is shown (see FIG. 4).” for “organism.”
# It should be noted that because the four oils, DHA, rice germ oil, vitamin E, and vitamin A, are light yellow to dark green, visually confirming the change of the fine litmus powder from blue to red due to acid seeping into oil within the capsule was difficult. Therefore, the color was confirmed by enlarging the litmus particles dispersed within the oil from outside the capsule using a microscope. The determination criteria for this was the same as described above (see FIG. 5).
Result (color) [2],Compound,Specific Gravity (25° C.) [1],liquid color / acidification inside the capsule (in words) [2],"liquid color in the capsule ([2]; after 20 minutes in JP first liquid pH1.2, 37°, Example 1)"
−,"OCC(O)CO [Glycerin, reference compound]",1.264,the entire inside of the capsule turned red,the entire inside of the capsule turned red
−,Glycerin fatty acid ester,1.02,the entire inside of the capsule turned red,
−,Sorbitan fatty acid ester,0.95,the entire inside of the capsule turned red,
++,Vitamin A,0.92,the interior of the capsule did not become acidic,
